Assay results reported in publication PMC9088311, “Cyclic Thiosulfonates for Thiol-Mediated Uptake: Cascade Exchangers, Transporters, Inhibitors” (JACS Au, 2022).
Values joined by “and” are separate entries in the source; they are usually repeats but may differ in a detail not shown here. Equal values may be shown once. Read-outs that look alike come from different tables or passages of the source. Marks after values point to notes of the source that are not given here.

Test system: lentivirus with D614G SC2 spike protein, A549 cells overexpressing ACE2 and TMPRSS2
Type: cell-based, SARS-CoV-2
Parameters: key to qualitative inhibition of SC2 uptake (heatmap): –: −: inactive; ++: qualitative inhibition of SC2 uptake
Settings: for IC50: read-out: IC50 of SC2 lentivector entry

SMILES	VE, vector entry	other results
CC(C)(C)[Si](C)(C)OC1CS(=O)(=O)SCC1OC(=O)NCCCCCCNC(=O)OC1CSS(=O)(=O)CC1O[Si](C)(C)C(C)(C)C (stereo not drawn) [Compound 4]	46 ± 8%	IC50: ~10 µM and ~5 µM
O=C(O)Cn1[se]c2ccccc2c1=O [Compound 45, reference compound]	31 ± 3%	qualitative inhibition of SC2 uptake (heatmap): ++; inhibition of SC2 lentivector entry (in words) (50 μM): more active and nontoxic
C#CCNC(=O)CC[C@H](NC(=O)COCCNC(=O)O[C@H]1CSS(=O)(=O)C[C@H]1O[Si](C)(C)C(C)(C)C)C(=O)NCCOCCNC(=O)O[C@H]1CSS(=O)(=O)C[C@H]1O[Si](C)(C)C(C)(C)C [Compound 44]	103 ± 12%	
O=S(O)CC(O)C(O)CSSCC(O)C(O)CS(=O)O (stereo not drawn) [Compound 37]	42 ± 32%	
CC1(C)O[C@H]2CSS(=O)(=O)C[C@H]2O1 [Compound 13]	80 ± 20%	
O=S1(=O)C[C@H](O)[C@H](O)CS1 (stereo in doubt) [Compound 3, (4S,5R)-4,5-dihydroxy-1,2-dithiane-1,1-dioxide]		inhibition of SC2 lentivector entry (in words): inactive; qualitative inhibition of SC2 uptake (heatmap): ++
NCCNC(=O)O[C@H]1CSS(=O)(=O)C[C@H]1O [Compound 39]	52 ± 31%	
CC(C)(C)[Si](C)(C)O[C@H]1CS(=O)(=O)SC[C@H]1OC(=O)NCCNC(=O)CC(O)(CC(=O)NCCNC(=O)O[C@H]1CSS(=O)(=O)C[C@H]1O[Si](C)(C)C(C)(C)C)C(=O)NCCNC(=O)O[C@@H]1CSS(=O)(=O)C[C@@H]1O[Si](C)(C)C(C)(C)C (stereo partly drawn) [Compound 42]	97 ± 15%	
CC(=O)/C=C1/C(=O)N(C)c2ccccc21 [Compound 48, super-cinnamaldehyde, reference compound]	>100%	inhibition of SC2 lentivector entry (in words) (5 μM): weak activation rather than inhibition
CC(=O)O[C@H]1CSS(=O)(=O)C[C@H]1O [Compound 36]	34 ± 3%	
O=C(N[C@H]1CCS(=O)(=O)SC1)N[C@H]1CCS(=O)(=O)SC1 [Compound 35]	25 ± 3%	inhibition of SC2 lentivector entry (in words): inactivity; inhibition of SC2 lentivector entry (in words) (50 μM): high activity
CC(C)(C)OC(=O)NCCNC(=O)O[C@H]1CSS(=O)(=O)C[C@H]1O[Si](C)(C)C(C)(C)C (racemic) [Compound 50]		VE, vector entry (inhibitor 5 μM (1 h), lentivirus 6 h, 3 days expression, n = 3, ±SD): 100 ± 40%
O=c1c2ccccc2[se]n1-c1ccccc1 [Compound 46, Ebselen, reference compound]	65 ± 13%	inhibition of SC2 lentivector entry (in words) (50 μM): more toxic than active
CC(C)(C)[Si](C)(C)O[C@@H]1CS(=O)(=O)SC[C@@H]1O [Compound 6]	105 ± 3%	
O=C(NCCCCCCNC(=O)O[C@H]1CSS(=O)(=O)C[C@H]1O)O[C@H]1CSS(=O)(=O)C[C@H]1O [Compound 41]	>100 ^f %	inhibition of SC2 lentivector entry (in words): inactive
CC(C)(C)OC(=O)NCCNC(=O)O[C@H]1CSS(=O)(=O)C[C@H]1O [Compound 34]	8 ± 6%	
CCN1C(=O)C2SSSSC1C(=O)N2CC(=O)O (stereo not drawn) [Compound 47, reference compound]	83 ± 12%	qualitative inhibition of SC2 uptake (heatmap): –
O=C(NCCCCCCNC(=O)O[C@H]1CSS(=O)(=O)C[C@H]1OCc1ccccc1)O[C@H]1CSS(=O)(=O)C[C@H]1OCc1ccccc1 [Compound 33]	56 ± 12%	IC50: ~5 µM
CC#CI1OC(=O)c2ccccc21 [Compound 49, reference compound]	>100%	inhibition of SC2 lentivector entry (in words): did not inhibit; qualitative inhibition of SC2 uptake (heatmap): –
O=C1O[C@H]2CSS(=O)(=O)C[C@H]2O1 [Compound 11]	4 ± 1%	
CC(C)(C)[Si](C)(C)O[C@@H]1CS(=O)(=O)SC[C@@H]1OC(=O)NCC[N+](C)(C)C [Compound 38]	43 ± 26%	
O=C(O)c1cc(SSc2ccc([N+](=O)[O-])c(C(=O)O)c2)ccc1[N+](=O)[O-] [Compound 16, 5,5’-Dithiobis(2-nitrobenzoic acid), reference compound]	>100%	inhibition of SC2 lentivector entry (in words) (5 μM): weak activation rather than inhibition
CCCNC(=O)O[C@H]1CSS(=O)(=O)C[C@H]1O[Si](C)(C)C(C)(C)C [Compound 43]	99 ± 12%	inhibition of SC2 lentivector entry (in words): inactivity
O=S(O)CC(O)C(O)CSSCCSSCC(O)C(O)CS(=O)O (stereo not drawn) [Compound 40]	64 ± 25%	
